Experimental data published in US20220298213A1, “IN VIVO ENGINEERED CEREBLON PROTEIN” (Vividion Therapeutics, Inc., priority 2018, published 2022).

Assays:
Format in all cases: binding
CRBN_188 = target: T1, CRBN_188 (Homo sapiens, UniProt Q96SW2); experiment: Probe labeling at native and denatured states after pretreatment (Table 2)
T1 construct: endogenous in cells; host or cells: cell lysate
Description: (§1) To determine whether the co-inhibition of C287 and C318 was due to a direct or indirect mechanism, CRBN was pretreated with various Michael acceptor compounds and then tested for probe labeling in its native and denatured states.
(§2) In each the cell lysate was pretreated with compound, for native state data the probe was immediately added and for denatured data the probe was added after an additional step of denaturation (schematic shown in FIG. 4).

CRBN_205 = target: T2, CRBN_205 (Homo sapiens, UniProt Q96SW2); experiment: as above
T2 construct: endogenous in cells; host or cells: cell lysate
Description: as §1, §2

CRBN_219 = target: T3, CRBN_219 (Homo sapiens, UniProt Q96SW2); experiment: as above
T3 construct: endogenous in cells; host or cells: cell lysate
Description: as §1, §2

CRBN_234 = target: T4, CRBN_234 (Homo sapiens, UniProt Q96SW2); experiment: as above
T4 construct: endogenous in cells; host or cells: cell lysate
Description: as §1, §2

CRBN_310 = target: T5, CRBN_310 (Homo sapiens, UniProt Q96SW2); experiment: as above
T5 construct: endogenous in cells; host or cells: cell lysate
Description: as §1, §2

CRBN_322 = target: T6, CRBN_322 (Homo sapiens, UniProt Q96SW2); experiment: as above
T6 construct: endogenous in cells; host or cells: cell lysate
Description: as §1, §2

CRBN_326 = target: T7, CRBN_326 (Homo sapiens, UniProt Q96SW2); experiment: as above
T7 construct: endogenous in cells; host or cells: cell lysate
Description: as §1, §2

CRBN_343 = target: T8, CRBN_343 (Homo sapiens, UniProt Q96SW2); experiment: as above
T8 construct: endogenous in cells; host or cells: cell lysate
Description: as §1, §2

CRBN_441 = target: T9, CRBN_441 (Homo sapiens, UniProt Q96SW2); experiment: as above
T9 construct: endogenous in cells; host or cells: cell lysate
Description: as §1, §2

BTK_481 = target: T10, BTK_481 (Homo sapiens, UniProt Q06187); experiment: as above; details: screening concentration
T10 construct: In each the cell lysate was pretreated with compound; endogenous in cells

TEC_449 = target: T11, TEC_449 (Homo sapiens, UniProt P42680); experiment: as above; details: screening concentration
T11 construct: In each the cell lysate was pretreated with compound; endogenous in cells
T11 sequence (P42680 1-631): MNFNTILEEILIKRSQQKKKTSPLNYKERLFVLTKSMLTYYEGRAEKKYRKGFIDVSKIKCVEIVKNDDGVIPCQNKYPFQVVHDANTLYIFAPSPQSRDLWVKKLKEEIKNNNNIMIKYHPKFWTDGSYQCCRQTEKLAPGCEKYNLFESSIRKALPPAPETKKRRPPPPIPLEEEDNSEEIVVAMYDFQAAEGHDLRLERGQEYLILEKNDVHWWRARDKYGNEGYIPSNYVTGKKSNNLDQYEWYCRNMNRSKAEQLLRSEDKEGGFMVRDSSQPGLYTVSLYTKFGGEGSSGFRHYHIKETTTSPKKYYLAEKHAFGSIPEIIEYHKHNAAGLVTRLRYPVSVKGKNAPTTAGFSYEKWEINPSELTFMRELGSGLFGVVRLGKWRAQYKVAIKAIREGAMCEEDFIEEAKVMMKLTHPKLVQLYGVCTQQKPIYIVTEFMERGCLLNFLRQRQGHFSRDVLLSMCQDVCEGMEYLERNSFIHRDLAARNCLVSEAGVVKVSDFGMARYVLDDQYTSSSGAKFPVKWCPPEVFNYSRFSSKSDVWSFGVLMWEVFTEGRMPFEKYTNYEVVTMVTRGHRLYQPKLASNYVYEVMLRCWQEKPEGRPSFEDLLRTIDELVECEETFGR

CRBN-287 = CRBN-287 (Homo sapiens, UniProt Q96SW2); experiment: as above; set-up: endogenous in cells; host or cells: cell lysate
Description: as §1, §2

CRBN-318 = CRBN-318 (Homo sapiens, UniProt Q96SW2); experiment: as above; set-up: endogenous in cells; host or cells: cell lysate
Description: as §1, §2

CRBN Cys188 = target: T12, CRBN Cys188 (Homo sapiens, UniProt Q96SW2); experiment: Inhibition of iodoacetamide probe labeling of CRBN cysteines, cell lysate (Table 3A); details: 500 micromolar, cell lysate, 1 h
T12 construct: endogenous in cells
Description: (§3) “X@Y” means that x % inhibition of iodoacetamide probe labeling was observed by treatment of cell lysate with the give compound in each row of the table for 1 h at a concentration of y micromolar. There was consistently high inhibition at C318 in addition to C287, which can be attributed to an allosteric inhibition.

CRBN Cys205 = target: T13, CRBN Cys205 (Homo sapiens, UniProt Q96SW2); experiment: as above; details: cell lysate, 1 h
T13 construct: endogenous in cells
Description: as §3

CRBN Cys219 = target: T14, CRBN Cys219 (Homo sapiens, UniProt Q96SW2); experiment: as above; details: cell lysate, 1 h
T14 construct: endogenous in cells
Description: as §3

CRBN Cys287 = target: T15, CRBN Cys287 (Homo sapiens, UniProt Q96SW2); experiment: as above; details: cell lysate, 1 h; for inhibition at 500 µM: 500 micromolar
T15 construct: endogenous in cells
Description: as §3

CRBN Cys343 = target: T16, CRBN Cys343 (Homo sapiens, UniProt Q96SW2); experiment: as above; details: cell lysate, 1 h
T16 construct: endogenous in cells
Description: as §3

CRBN Cys366 = target: T17, CRBN Cys366 (Homo sapiens, UniProt Q96SW2); experiment: as above; details: cell lysate, 1 h
T17 construct: endogenous in cells
Description: as §3

CRBN Cys234 = target: T18, CRBN Cys234 (Homo sapiens, UniProt Q96SW2); experiment: as above; details: cell lysate, 1 h
T18 construct: endogenous in cells
Description: as §3

CRBN Cys318 = target: T19, CRBN Cys318 (Homo sapiens, UniProt Q96SW2); experiment: as above; details: cell lysate, 1 h
T19 construct: endogenous in cells
Description: as §3

[1] = read-out: % inhibition of iodoacetamide probe labeling, Cys287

T18 sequence (Q96SW2 whole entry): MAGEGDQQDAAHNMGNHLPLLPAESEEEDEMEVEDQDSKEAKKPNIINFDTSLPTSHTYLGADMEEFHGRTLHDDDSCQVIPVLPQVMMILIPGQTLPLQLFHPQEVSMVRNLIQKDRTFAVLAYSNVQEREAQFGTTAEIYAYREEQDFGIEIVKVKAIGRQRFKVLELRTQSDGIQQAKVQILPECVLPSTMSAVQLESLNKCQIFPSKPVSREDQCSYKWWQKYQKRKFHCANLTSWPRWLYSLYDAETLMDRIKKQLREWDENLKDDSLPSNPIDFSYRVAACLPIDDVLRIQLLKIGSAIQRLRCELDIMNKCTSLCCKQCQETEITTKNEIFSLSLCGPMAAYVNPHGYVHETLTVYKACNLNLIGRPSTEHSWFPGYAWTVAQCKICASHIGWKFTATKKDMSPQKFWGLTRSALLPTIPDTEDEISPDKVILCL
T17 sequence (Q96SW2 whole entry): as above
T14 sequence (Q96SW2 whole entry): as above
T16 sequence (Q96SW2 whole entry): as above
T15 sequence (Q96SW2 whole entry): as above
T19 sequence (Q96SW2 whole entry): as above
T10 sequence (Q06187 whole entry): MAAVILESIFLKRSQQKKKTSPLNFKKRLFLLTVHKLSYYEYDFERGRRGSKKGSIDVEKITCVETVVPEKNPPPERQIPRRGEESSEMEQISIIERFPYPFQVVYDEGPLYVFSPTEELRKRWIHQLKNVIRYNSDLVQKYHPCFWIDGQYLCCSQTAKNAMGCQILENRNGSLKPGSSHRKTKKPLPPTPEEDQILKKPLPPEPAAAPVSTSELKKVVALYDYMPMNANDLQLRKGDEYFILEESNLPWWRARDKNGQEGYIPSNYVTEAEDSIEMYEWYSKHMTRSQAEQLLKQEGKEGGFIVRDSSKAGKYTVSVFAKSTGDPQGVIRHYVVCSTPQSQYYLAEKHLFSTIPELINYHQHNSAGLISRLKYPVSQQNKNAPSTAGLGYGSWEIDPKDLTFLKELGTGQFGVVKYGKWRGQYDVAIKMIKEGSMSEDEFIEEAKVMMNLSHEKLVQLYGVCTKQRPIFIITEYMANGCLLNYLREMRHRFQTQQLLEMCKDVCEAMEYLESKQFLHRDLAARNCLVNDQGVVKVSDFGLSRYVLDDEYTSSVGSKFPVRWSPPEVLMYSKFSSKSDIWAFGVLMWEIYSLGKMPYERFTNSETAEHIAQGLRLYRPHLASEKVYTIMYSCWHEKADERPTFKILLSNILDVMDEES
T3 sequence (Q96SW2 whole entry): as the sequence (Q96SW2 whole entry) above
T5 sequence (Q96SW2 whole entry): as above
T13 sequence (Q96SW2 whole entry): as above
T4 sequence (Q96SW2 whole entry): as above
T6 sequence (Q96SW2 whole entry): as above
T1 sequence (Q96SW2 whole entry): as above
T2 sequence (Q96SW2 whole entry): as above
T12 sequence (Q96SW2 whole entry): as above
T9 sequence (Q96SW2 whole entry): as above
Sequence of CRBN-318 (Q96SW2 whole entry): as above
T8 sequence (Q96SW2 whole entry): as above
T7 sequence (Q96SW2 whole entry): as above
Sequence of CRBN-287 (Q96SW2 whole entry): as above

C=CC(=O)N1CC(Cc2ccc(C)cc2)C1
inhibition of probe labeling, CRBN_188, Den. (CRBN_188): −21% | inhibition of probe labeling, CRBN_188, Nat. (CRBN_188): −13% | inhibition of probe labeling, CRBN_205, Den. (CRBN_205): −11% | inhibition of probe labeling, CRBN_205, Nat. (CRBN_205): −23% | inhibition of probe labeling, CRBN_219, Den. (CRBN_219): 24% | inhibition of probe labeling, CRBN_219, Nat. (CRBN_219): −6% | inhibition of probe labeling, CRBN_234, Den. (CRBN_234): −7% | inhibition of probe labeling, CRBN_234, Nat. (CRBN_234): −4% | inhibition of probe labeling, CRBN_310, Den. (CRBN_310): −1% | inhibition of probe labeling, CRBN_310, Nat. (CRBN_310): 9% | inhibition of probe labeling, CRBN_322, Den. (CRBN_322): 15% | inhibition of probe labeling, CRBN_322, Nat. (CRBN_322): 36% | inhibition of probe labeling, CRBN_326, Den. (CRBN_326): −16% | inhibition of probe labeling, CRBN_343, Den. (CRBN_343): −28% | inhibition of probe labeling, CRBN_441, Den. (CRBN_441): −24% | inhibition of probe labeling, BTK_481, Den. (BTK_481; denatured state): 99% | inhibition of probe labeling, BTK_481, Nat. (BTK_481; native state): 99% | inhibition of probe labeling, TEC_449, Den. (TEC_449; denatured state): 98% | inhibition of probe labeling, TEC_449, Nat. (TEC_449; native state): 99% | inhibition of probe labeling, CRBN_287, Den. (CRBN-287): 67% | inhibition of probe labeling, CRBN_318, Den. (CRBN-318): 11%

C=CC(=O)N1CCC(Oc2cc(C(=O)N(C)C)cc(-c3ccccc3OC)c2)CC1 [Example A2]
inhibition at 500 µM (CRBN Cys188): 9% | inhibition at 500 µM (CRBN Cys205; 500 micromolar, read-out: % inhibition of iodoacetamide probe labeling, Cys205): 18% | inhibition at 500 µM (CRBN Cys219; 500 micromolar, read-out: % inhibition of iodoacetamide probe labeling, Cys219): 31% | inhibition at 500 µM (CRBN Cys287; [1]): 91% | inhibition at 500 µM (CRBN Cys343; 500 micromolar): -6% | inhibition at 500 µM (CRBN Cys366; 500 micromolar): 2%

CC(/C=C(\C#N)C(=O)N1CCC(c2ccccc2)C1)c1ccccc1 (stereo not shown) [Example A7]
inhibition at 5 µM (CRBN Cys205; 5 micromolar): -42% | inhibition at 5 µM (CRBN Cys219; 5 micromolar): -3% | inhibition at 50 µM (CRBN Cys219; 50 micromolar): 32% | inhibition at 0.5 µM (CRBN Cys234; 0.5 micromolar): 12% | inhibition at 5 µM (CRBN Cys234; 5 micromolar): 19% | inhibition at 50 µM (CRBN Cys234; 50 micromolar): 32% | inhibition at 2 µM (CRBN Cys287; 2.0 micromolar, read-out: % inhibition of iodoacetamide probe labeling, Cys287): 71% | inhibition at 7.8 µM (CRBN Cys287; 7.8 micromolar): 72% | inhibition at 31.2 µM (CRBN Cys287; 31.2 micromolar, read-out: % inhibition of iodoacetamide probe labeling, Cys287): 95% | inhibition at 125 µM (CRBN Cys287; 125 micromolar, read-out: % inhibition of iodoacetamide probe labeling, Cys287): 94% | inhibition at 500 µM (CRBN Cys287; [1]): 92% | inhibition at 0.5 µM (CRBN Cys318; 0.5 micromolar): 39% | inhibition at 5 µM (CRBN Cys318; 5 micromolar): 67% | inhibition at 50 µM (CRBN Cys318; 50 micromolar): 69% | inhibition at 5 µM (CRBN Cys343; 5 micromolar): 8% | inhibition at 50 µM (CRBN Cys343; 50 micromolar): 51% | inhibition at 0.5 µM (CRBN Cys366; 0.5 micromolar): 3% | inhibition at 5 µM (CRBN Cys366; 5 micromolar): 3% | inhibition at 50 µM (CRBN Cys366; 50 micromolar): 26%
